Results on 1 compound are retold here after patent publication US9522873B2, “Biphenyl derivative, pharmaceutically acceptable salt thereof, and methods for preventing or treating inflammatory diseases or autoimmune diseases” (Dongguk University Industry-Academic Cooperation Foundation, priority 2011, dated 2016).

What all share (type): in vivo
Test [1] deals with TPA-induced ear edema (inflammation) mouse models. Briefly: TPA-induced ear edema (inflammation) mouse model: ear weight and H&E staining. The following applies: ICR male mice, 20 μl of 0.3% and 1% applied to left ear 1 hour and 6 hours after TPA, harvested after 24 hours. Here is the method: (§1) The following experiment was performed using tetradecanoyl phorbol acetate (TPA)-induced ear edema (inflammation) mouse models to analyze the anti-inflammatory activity of the novel biphenyl compounds obtained in Example 1. The TPA-induced ear edema mouse model has been widely used to investigate the mechanism of the inflammatory response and the effects of inhibitory substances (Agents and Actions. 1989. 26; 335-341). More specifically, 6-week-old ICR male mice were prepared, and each 20 μl of a TPA solution dissolved in acetone at a concentration of 125 μg/ml was applied to the left ears of mice. After 1 hour of the TPA application, each 20 μl of the solvent or compound 6 (0.3% and 1%) prepared in Example 1 and dissolved in the solvent was applied to the left ears of mice and reapplied after 6 hours of the TPA application. Indomethacin, an anti-inflammatory agent, was applied to the positive control group. Each predetermined area of the left ears of mice was harvested after 24 hours of the TPA application. The weight of each of the left ears of mice was measured, and H&E staining and immunohistochemical staining were performed on ear tissues.

Test [2] relates to anti-inflammatory protein IkB (inhibitory kappa B). Briefly: TPA-induced ear edema mouse model: immunohistochemical staining of ear tissue for IkB. The following applies: ear tissue of TPA-treated ICR mice, 24 hours after TPA, FIG. 8. As to the method:
as §1

Test [3] deals with inflammation-related protein p65. Description: TPA-induced ear edema mouse model: immunohistochemical staining of ear tissue for p65. The following applies: ear tissue of TPA-treated ICR mice, 24 hours after TPA, FIG. 7. Here is the method: as §1

`CCCCC(=O)N(Cc1ccc(-c2ccccc2C(=O)N2CCN(C)CC2)cc1)c1ccccc1` [compound 4, N-[(2′-(4-methylpiperazine-1-carbonyl)biphenyl-4-yl)methyl]-N-phenylpentanamide]: the “inflammation and edema induced by TPA (ear weight)” value in test [1] (FIG. 5) is “inhibited”. For the same compound, the “ear tissues thickened by the edema induced by TPA (H&E staining)” value in test [1] (FIG. 6) is recorded as “recovered to normal level”. In addition, the “expression of anti-inflammatory protein IkB (inhibitory kappa B)” value in test [2] is reported as “increased”. In addition, the “expression of inflammation-related protein p65” value in test [3] is “decreased”.
